Measured values reported in patent US9200005B2, “Inhibitor compounds of phosphodiesterase type 10A” (AbbVie Deutschland GmbH & Co. KG, priority 2013, dated 2015).
Where a name gives a salt, the structure may show the parent alone.

Legend:
[1] = Determination of the microsomal half-life / microsomal clearance, rat liver microsomes; format: in vitro ADME; conditions: 0.5 μM test substance, 0.25 mg of microsomal protein/mL, NADPH, 37° C.
Protocol: (§1) b) Determination of the Microsomal Half-Life:
(§2) The metabolic stability of the compounds of the invention was determined in the following assay.
(§3) The test substances were incubated in a concentration of 0.5 μM as follows:
(§4) 0.5 μM test substance are preincubated together with liver microsomes from different species (from rat, human or other species) (0.25 mg of microsomal protein/mL) in 0.05 M potassium phosphate buffer of pH 7.4 in microtiter plates at 37° C. for 5 min. The reaction is started by adding NADPH (1 mg/mL). After 0, 5, 10, 15, 20 and 30 min, 50 μl aliquots are removed, and the reaction is immediately stopped and cooled with the same volume of acetonitrile. The samples are frozen until analyzed. The remaining concentration of undegraded test substance is determined by MSMS. The half-life (T½) is determined from the gradient of the signal of test substance/unit time plot, it being possible to calculate the half-life of the test substance, assuming first order kinetics, from the decrease in the concentration of the compound with time. The microsomal clearance (mCl) is calculated from mCl=ln 2/T½/(content of microsomal protein in mg/mL)×1000 [mL/min/mg] (modified from references: Di, The Society for Biomoleculur Screening, 2003, 453-462; Obach, DMD, 1999 vol 27. N 11, 1350-1359).

[2] = Determination of the microsomal half-life / microsomal clearance, human liver microsomes; format: in vitro ADME; conditions: 0.5 μM test substance, 0.25 mg of microsomal protein/mL, NADPH, 37° C.
Protocol: as §1, §2, §3, §4

Row | Rat mCl [1] | Human mCl [2] | Molecule | Rat mCl ([1]; bis(trifluoroacetate))
1 | + (+: 100-220 μl min^−1 mg^−1) | + (+: 100-220 μl min^−1 mg^−1) | COc1cccc(-c2csc3c(-c4ccncc4)nn(C)c(=O)c23)c1.O=C(O)C(F)(F)F [Example 30, 3-(3-methoxyphenyl)-5-methyl-7-(pyridin-4-yl)thieno[2,3-d]pyridazin-4(5H)-one trifluoroacetate] | 
2 | ++ (++: <100 μl min^−1 mg^−1) | + (+: 100-220 μl min^−1 mg^−1) | Cn1nc(-c2ccncc2)c2scc(-c3cccc(F)c3)c2c1=O.O=C(O)C(F)(F)F [Example 31, 3-(3-fluorophenyl)-5-methyl-7-(pyridin-4-yl)thieno[2,3-d]pyridazin-4(5H)-one trifluoroacetate] | 
3 | ++ (++: <100 μl min^−1 mg^−1) | ++ (++: <100 μl min^−1 mg^−1) | Cn1nc(-c2ccncc2)c2scc(-c3cccc(C(=O)N4CCOCC4)c3)c2c1=O [Example 32, 5-methyl-3-[3-(morpholin-4-ylcarbonyl)phenyl]-7-(pyridin-4-yl)thieno[2,3-d]pyridazin-4(5H)-one trifluoroacetate] | 
4 | + (+: 100-220 μl min^−1 mg^−1) | ++ (++: <100 μl min^−1 mg^−1) | Cn1nc(-c2ccncc2)c2scc(-c3ccsc3)c2c1=O.O=C(O)C(F)(F)F [Example 34, 5-methyl-7-(pyridin-4-yl)-3-(thiophen-3-yl)thieno[2,3-d]pyridazin-4(5H)-one trifluoroacetate] | 
5 | + (+: 100-220 μl min^−1 mg^−1) | + (+: 100-220 μl min^−1 mg^−1) | Cn1nc(-c2ccncc2)c2scc(-c3ccc4c(c3)CCO4)c2c1=O.O=C(O)C(F)(F)F [Example 35, 3-(2,3-dihydro-1-benzofuran-5-yl)-5-methyl-7-(pyridin-4-yl)thieno[2,3-d]pyridazin-4(5H)-one trifluoroacetate] | 
6 | ++ (++: <100 μl min^−1 mg^−1) | ++ (++: <100 μl min^−1 mg^−1) | Cn1nc(-c2ccncc2)c2scc(-c3ccccc3F)c2c1=O.O=C(O)C(F)(F)F [Example 36, 3-(2-fluorophenyl)-5-methyl-7-(pyridin-4-yl)thieno[2,3-d]pyridazin-4(5H)-one trifluoroacetate] | 
7 | + (+: 100-220 μl min^−1 mg^−1) | ++ (++: <100 μl min^−1 mg^−1) | Cn1cc(-c2csc3c(-c4ccncc4)nn(C)c(=O)c23)cn1.O=C(O)C(F)(F)F [Example 37, 5-methyl-3-(1-methyl-1H-pyrazol-4-yl)-7-(pyridin-4-yl)thieno[2,3-d]pyridazin-4(5H)-one trifluoroacetate] | 
8 | ++ (++: <100 μl min^−1 mg^−1) | ++ (++: <100 μl min^−1 mg^−1) | COc1ccccc1-c1csc2c(-c3ccncc3)nn(C)c(=O)c12.O=C(O)C(F)(F)F [Example 39, 3-(2-methoxyphenyl)-5-methyl-7-(pyridin-4-yl)thieno[2,3-d]pyridazin-4(5H)-one trifluoroacetate] | 
9 | ++ (++: <100 μl min^−1 mg^−1) | ++ (++: <100 μl min^−1 mg^−1) | Cn1nc(-c2ccncc2)c2scc(-c3ccc(C(=O)NC4CC4)cc3)c2c1=O.O=C(O)C(F)(F)F [Example 40, N-cyclopropyl-4-[5-methyl-4-oxo-7-(pyridin-4-yl)-4,5-dihydrothieno[2,3-d]pyridazin-3-yl]benzamide trifluoroacetate] | 
10 | ++ (++: <100 μl min^−1 mg^−1) | + (+: 100-220 μl min^−1 mg^−1) | Cn1nc(-c2ccncc2)c2scc(-c3cnn(Cc4ccccc4)c3)c2c1=O.O=C(O)C(F)(F)F.O=C(O)C(F)(F)F [Example 41, 3-(1-benzyl-1H-pyrazol-4-yl)-5-methyl-7-(pyridin-4-yl)thieno[2,3-d]pyridazin-4(5H)-one bis(trifluoroacetate)] | 
11 | ++ (++: <100 μl min^−1 mg^−1) | + (+: 100-220 μl min^−1 mg^−1) | CN1CCN(Cc2cccc(-c3csc4c(-c5ccncc5)nn(C)c(=O)c34)c2)CC1.O=C(O)C(F)(F)F.O=C(O)C(F)(F)F.O=C(O)C(F)(F)F [Example 42, 5-methyl-3-{3-[(4-methylpiperazin-1-yl)methyl]phenyl}-7-(pyridin-4-yl)thieno[2,3-d]pyridazin-4(5H)-one tris(trifluoroacetate)] | 

The next lines start with the molecule.

Row | Molecule | Rat mCl [1] | Human mCl [2] | Rat mCl ([1]; bis(trifluoroacetate))
12 | 3-(4-fluorophenyl)-5-methyl-7-(pyridin-4-yl)thieno[2,3-d]pyridazin-4(5H)-one [Example 48] | ++ (++: <100 μl min^−1 mg^−1) | ++ (++: <100 μl min^−1 mg^−1) | 
13 | Cn1nc(-c2ccncc2)c2scc(N3CCC(O)CC3)c2c1=O [Example 4, 3-(4-hydroxypiperidin-1-yl)-5-methyl-7-(pyridin-4-yl)thieno[2,3-d]pyridazin-4(5H)-one] | ++ (++: <100 μl min^−1 mg^−1) | ++ (++: <100 μl min^−1 mg^−1) | 
14 | Cn1nc(-c2ccncc2)c2scc(N3CCN(C(=O)OC(C)(C)C)CC3)c2c1=O [Example 5, tert-butyl 4-[5-methyl-4-oxo-7-(pyridin-4-yl)-4,5-dihydrothieno[2,3-d]pyridazin-3-yl]piperazine-1-carboxylate] | ++ (++: <100 μl min^−1 mg^−1) | ++ (++: <100 μl min^−1 mg^−1) | 
15 | Cn1nc(-c2ccncc2)c2scc(-c3ccnnc3)c2c1=O [Example 7, 5-methyl-3-(pyridazin-4-yl)-7-(pyridin-4-yl)thieno[2,3-d]pyridazin-4(5H)-one] | + (+: 100-220 μl min^−1 mg^−1) | ++ (++: <100 μl min^−1 mg^−1) | 
16 | Cn1nc(-c2ccncc2)c2scc(-c3ccc(F)cc3)c2c1=O [Example 8, 3-(4-fluorophenyl)-5-methyl-7-(pyridin-4-yl)thieno[2,3-d]pyridazin-4(5H)-one] | + (+: 100-220 μl min^−1 mg^−1) | + (+: 100-220 μl min^−1 mg^−1) | 
17 | COc1ncc(-c2csc3c(-c4ccncc4)nn(C)c(=O)c23)cn1 [Example 10, 3-(2-methoxypyrimidin-5-yl)-5-methyl-7-(pyridin-4-yl)thieno[2,3-d]pyridazin-4(5H)-one] | ++ (++: <100 μl min^−1 mg^−1) | ++ (++: <100 μl min^−1 mg^−1) | 
18 | Cn1nc(-c2ccncc2)c2scc(N3CCNCC3)c2c1=O [Example 12, 5-methyl-3-(piperazin-1-yl)-7-(pyridin-4-yl)thieno[2,3-d]pyridazin-4(5H)-one (dihydrochloride salt)] | ++ (++: <100 μl min^−1 mg^−1) | ++ (++: <100 μl min^−1 mg^−1) | 
19 | Cn1nc(-c2ccncc2)c2scc(CN3CCOCC3)c2c1=O [Example 13, 5-methyl-3-(morpholin-4-ylmethyl)-7-(pyridin-4-yl)thieno[2,3-d]pyridazin-4(5H)-one] | + (+: 100-220 μl min^−1 mg^−1) | + (+: 100-220 μl min^−1 mg^−1) | 
20 | Cn1nc(-c2ccncc2)c2scc(-c3cccnc3)c2c1=O.O=C(O)C(F)(F)F [Example 15, 5-methyl-3-(pyridin-3-yl)-7-(pyridin-4-yl)thieno[2,3-d]pyridazin-4(5H)-one bis(trifluoroacetate)] |  | ++ (++: <100 μl min^−1 mg^−1) | ∘ (∘ not avialable or >220 μl min^−1 mg^−1)
21 | Cn1nc(-c2ccncc2)c2scc(-c3cc4ccccc4s3)c2c1=O.O=C(O)C(F)(F)F [Example 23, 3-(1-benzothiophen-2-yl)-5-methyl-7-(pyridin-4-yl)thieno[2,3-d]pyridazin-4(5H)-one trifluoroacetate] | + (+: 100-220 μl min^−1 mg^−1) | + (+: 100-220 μl min^−1 mg^−1) | 
22 | Cn1nc(-c2ccncc2)c2scc(-c3cccc(-n4cccn4)c3)c2c1=O.O=C(O)C(F)(F)F.O=C(O)C(F)(F)F [Example 24, 5-methyl-3-[3-(1H-pyrazol-1-yl)phenyl]-7-(pyridin-4-yl)thieno[2,3-d]pyridazin-4(5H)-one bis(trifluoroacetate)] | + (+: 100-220 μl min^−1 mg^−1) | ∘ (∘ not avialable or >220 μl min^−1 mg^−1) | 
23 | Cn1nc(-c2ccncc2)c2scc(-c3ccc(C#N)cc3)c2c1=O.O=C(O)C(F)(F)F [Example 25, 4-[5-methyl-4-oxo-7-(pyridin-4-yl)-4,5-dihydrothieno[2,3-d]pyridazin-3-yl]benzonitrile trifluoroacetate] | ++ (++: <100 μl min^−1 mg^−1) | ++ (++: <100 μl min^−1 mg^−1) | 
24 | Cn1nc(-c2ccncc2)c2scc(-c3csc4ccccc34)c2c1=O.O=C(O)C(F)(F)F [Example 26, 3-(1-benzothiophen-3-yl)-5-methyl-7-(pyridin-4-yl)thieno[2,3-d]pyridazin-4(5H)-one trifluoroacetate] | ∘ (∘ not avialable or >220 μl min^−1 mg^−1) | + (+: 100-220 μl min^−1 mg^−1) | 
25 | Cn1nc(-c2ccncc2)c2scc(-c3ccc(F)nc3)c2c1=O.O=C(O)C(F)(F)F.O=C(O)C(F)(F)F [Example 27, 3-(6-fluoropyridin-3-yl)-5-methyl-7-(pyridin-4-yl)thieno[2,3-d]pyridazin-4(5H)-one bis(trifluoroacetate)] | ++ (++: <100 μl min^−1 mg^−1) | ++ (++: <100 μl min^−1 mg^−1) | 
26 | Cn1nc(-c2ccncc2)c2scc(-c3ccc(NS(C)(=O)=O)cc3)c2c1=O.O=C(O)C(F)(F)F [Example 33, N-{4-[5-methyl-4-oxo-7-(pyridin-4-yl)-4,5-dihydrothieno[2,3-d]pyridazin-3-yl]phenyl}methanesulfonamide trifluoroacetate] | ∘ (∘ not avialable or >220 μl min^−1 mg^−1) | ++ (++: <100 μl min^−1 mg^−1) | 
